Patent publication US7635493B2, “Herbal composition for Tinea infection” (Piramal Life Sciences Limited, priority 2005, dated 2009)
≈ marks a conversion by molar mass, not a printed value.

Assays:
TNF-α = TNF-α production by LPS in human peripheral blood mononuclear cells (hPBMC), ELISA; assay type: cell-based
Method: Assay for Screening in Human Peripheral Blood Mononuclear Cells (hPBMCs). TNF-α production by Lipopolysaccharide (LPS) in hPBMC was measured according to the method described by Jansky, L. et al (Physiol. Res. 52, 593-598, (2003)). Blood was collected from healthy donors into vacutainer tubes coated with potassium EDTA (Vacutest Plast) and diluted 1:2 with Dulbecco's Phosphate Buffered Saline (DPBS) (Sigma Aldrich, St. Louis, Mo.). The PBMC were harvested from human blood and suspended in RPMI 1640 culture medium (Gibco BRL, Pasley, UK) containing 10% fetal bovine serum (FBS) (Hyclone, Utah, USA), 100 U/ml penicillin (Sigma Chemical Co. St Louis, Mo.) and 100 μg/ml streptomycin (Sigma Chemical Co. St Louis, Mo.). The cell concentration was adjusted to 1×10^6 cells/ml. The cell suspension (100 μl) was added to the wells of a 96-well culture plate. Following cell plating, 79 μl of the culture medium and 1 μl of eight different concentrations of the test samples (10 to 100 μg/ml) dissolved in dimethylsulfoxide (DMSO, Sigma, Mo., USA) were added to the cells. The final concentration of DMSO was adjusted to 0.5-1%. Rolipram (100 μM) was used as a standard compound. The plates were incubated for 30 min at 37° C. in an atmosphere of 5% CO2. Finally, 20 μl (10 μg/ml) per well of LPS, (Escherchia coli 0127:B8, Sigma Chemical Co., St. Louis, Mo.) was added, to obtain a final concentration of 2 μg/ml. The plates were incubated at 37° C. for 5 h in an atmosphere of 5% CO2. Supernatants were harvested and assayed for % TNF-α inhibition by ELISA as described by the manufacturer (R&D Systems, MN) or by cytotoxicity bioassay in L929 cells.

L929 cells = assay: Cytotoxicity in L929 cell lines; assay type: cell-based; parameters: Cytotoxicity in L929 cell lines: unit not given here
Microsporum gypseum = assay: In vitro anti-dermatophytic activity, agar dilution MIC; assay type: cell-based; settings: Nannizzia gypsea; M. gypseum; Sabarouds agar, 28° C./48 h
Method: (§1) In vitro Assay Procedure.
(§2) Organisms: Trichophyton mentagrophytes & Microsporum gypseum.
(§3) Cultures were grown on PDA agar slants at 28° C. for 7 days. The growth was covered with sterile saline & scraped to get a growth suspension. The resulting mixture of conidia or sporangiospores & hypal fragments was transferred to a sterile test tube. The heavy particles were allowed to settle & upper homogenous suspension was transferred to another tube. These suspensions were adjusted to an optical density that ranged from 0.09 to 0.11 (80 to 82% transmittance) using a spectrophotometer. These stock suspensions were further diluted 1:10 with saline to obtain test inoculum (1×103 to 5×10^3 cfu/ml).
(§4) Ointment & Cream: A 100 mg/ml stock solution of ointment & cream of example 4 and 5 was prepared in demineralised water+0.01% Tween 20. Calculated amount of stock solution was added to 20 ml of Sabarouds melted agar medium & poured into petri plates so as to get a series of serial two fold dilution of the extract in the medium. Five concentrations of 100, 50, 25, 10 & 5 mg/ml were used for both formulations in initial study. A repeated study was carried out using lower concentrations of both the formulations. The concentrations used were 5, 1, 0.9, 0.8, 0.7, 0.6, 0.5, 0.4 0.3, 0.2 & 0.1 mg/ml.
(§5) Extract of Example 1 and Ethyl p-methoxycinnamate: […]

[1] = system: Trichophyton mentagrophytes; assay: as above; assay type: cell-based; settings: T. mentagrophytes, Sabarouds agar, 28° C./48 h
Method: as §1, §2, §3, §4, §5

dermatophytes = settings: Lloydia, 39(4), 218-222, (1976); cited from earlier work

MIC (Microsporum gypseum): 30 µg/mL (≈ 145 µM) | MIC [1]: 30 µg/mL (≈ 145 µM)
Structure (SMILES): CCOC(=O)C=Cc1ccc(OC)cc1 [Ethyl p-methoxycinnamate]
inhibition at 10 µg/mL (TNF-α; PBMC, sample concentration 10 μg/ml, LPS-stimulated human cells, 5 h): 0% | inhibition at 100 µg/mL (TNF-α; PBMC, sample concentration 100 μg/ml, LPS-stimulated human cells, 5 h): 80% | TNF alpha activity inhibition (conclusion in words) (TNF-α; conclusion from table 1): inhibit TNF alpha activity | Cytotoxicity in L929 cell lines (L929 cells; 10 μg/ml, 3.5 h): 20 | Cytotoxicity in L929 cell lines (L929 cells; 10 μg/ml, 24 h): 27 | Cytotoxicity in L929 cell lines (L929 cells; 100 μg/ml, 3.5 h): 12 | Cytotoxicity in L929 cell lines (L929 cells; 100 μg/ml, 24 h): 02 | Cytotoxicity (conclusion in words) (L929 cells; as measured in L929 cell lines): low cytotoxicity | Anti-dermatophytic activity (reported) (dermatophytes): reported to be anti-dermatophytic
